{
  "source": "patent US20150284380A1",
  "about": "“NOVEL HETEROCYCLIC COMPOUNDS AS PEST CONTROL AGENTS” (BAYER CROPSCIENCE AG, priority 2012, published 2015)",
  "key": {"[1]": {"test": "logP by HPLC-MS (HCOOH or neutral)"}, "[2]": {"test_system": "green peach aphid (Myzus persicae)", "test": "Myzus persicae spray test", "assay_type": "in vivo", "conditions": "foliar, 144 h, read-out: efficacy in % (aphids killed)", "method": "Myzus persicae—Spray Test\nSolvent: 78 parts by weight of acetone • • 1.5 parts by weight of dimethylformamide\nEmulsifier: 0.5 parts by weight of alkylaryl polyglycol ether\nTo produce a suitable active compound formulation, 1 part by weight of active compound is mixed with the stated amounts of solvent and emulsifier, and the concentrate is diluted with emulsifier-containing water to the desired concentration.\nDiscs of Chinese cabbage leaves (Brassica pekinensis) infested by all stages of the green peach aphid (Myzus persicae) are sprayed with an active compound formulation of the desired concentration.\nAfter 6 days, the efficacy in % is determined. 100% means that all the aphids have been killed; 0% means that none of the aphids have been killed."}, "[3]": {"conditions": "HCOOH (formic acid), logP (HCOOH), HPLC-MS, HCOOH"}, "[4]": {"conditions": "application rate 500 g/ha, spray on infested Chinese cabbage leaf discs, after 6 days"}, "[5]": {"conditions": "logP (neutral), HPLC-MS, neutral"}},
  "note": "Where two headings read alike, the source gives them in different places.",
  "data": [
    {"smiles": "Cn1cc(-n2cc(-c3cccc(-c4ncccn4)n3)cn2)cn1", "note": "[Example 7]", "values": [
      {"measurement": "chromatographic logP", "setting": "[1]; [3]", "value": 1.37},
      {"measurement": "pest or weed control at 500 g/ha", "setting": "[2]; [4]", "value": 100, "unit": "%"}
    ]},
    {"smiles": "c1cnc(-c2cccc(-c3cnc(-c4cnsc4)s3)n2)nc1", "note": "[Example 10]", "values": [
      {"measurement": "chromatographic logP", "setting": "[1]; [3]", "value": 1.91}
    ]},
    {"smiles": "c1cnc(-c2cccc(-c3cnn(-c4cnsc4)c3)n2)nc1", "note": "[Example 2, 2-{6-[1-(isothiazol-4-yl)-1H-pyrazol-4-yl]pyridin-2-yl}pyrimidine]", "values": [
      {"measurement": "chromatographic logP", "setting": "[1]; [3]", "value": 1.65},
      {"measurement": "chromatographic logP", "setting": "[1]; [5]", "value": 1.64}
    ]},
    {"smiles": "c1cnc(-c2cccc(-c3cnc(-c4cncs4)s3)n2)nc1", "note": "[Example 1, 5-[6-(Pyrimidin-2-yl)pyridin-2-yl]-2,5′-bi-1,3-thiazole]", "values": [
      {"measurement": "chromatographic logP", "setting": "[1]; [3]", "value": 1.76},
      {"measurement": "logP (HCOOH)", "setting": "[1]; HPLC-MS, HCOOH", "value": 1.74},
      {"measurement": "pest or weed control at 500 g/ha", "setting": "[2]; [4]", "value": 80, "unit": "%"}
    ]},
    {"smiles": "CS(=O)(=O)NC(=O)c1cccc(-c2cnc(-c3ccnnc3)s2)n1", "note": "[Example 4]", "values": [
      {"measurement": "chromatographic logP", "setting": "[1]; [3]", "value": 1.36},
      {"measurement": "pest or weed control at 500 g/ha", "setting": "[2]; [4]", "value": 100, "unit": "%"}
    ]},
    {"smiles": "c1cnc(-c2cccc(-c3cnn(-c4ccnnc4)c3)n2)nc1", "note": "[Example 5]", "values": [
      {"measurement": "chromatographic logP", "setting": "[1]; [3]", "value": 1.23},
      {"measurement": "pest or weed control at 500 g/ha", "setting": "[2]; [4]", "value": 90, "unit": "%"}
    ]},
    {"smiles": "Cn1cc(-c2ncc(-c3cccc(-c4ncccn4)n3)s2)cn1", "note": "[Example 8, 2-{6-[2-(1-Methyl-1H-pyrazol-4-yl)-1,3-thiazol-5-yl]pyridin-2-yl}pyrimidine]", "values": [
      {"measurement": "chromatographic logP", "setting": "[1]; [5]", "value": 1.56},
      {"measurement": "pest or weed control at 500 g/ha", "setting": "[2]; [4]", "value": 100, "unit": "%"}
    ]},
    {"smiles": "CS(=O)(=O)NC(=O)c1cccc(-c2cnc(-c3cnsc3)s2)n1", "note": "[Example 12]", "values": [
      {"measurement": "chromatographic logP", "setting": "[1]; [3]", "value": 1.9},
      {"measurement": "pest or weed control at 500 g/ha", "setting": "[2]; [4]", "value": 90, "unit": "%"}
    ]},
    {"smiles": "c1cnc(-c2cccc(-c3cnn(-c4cnccn4)c3)n2)nc1", "note": "[Example 6]", "values": [
      {"measurement": "chromatographic logP", "setting": "[1]; [3]", "value": 1.65},
      {"measurement": "pest or weed control at 500 g/ha", "setting": "[2]; [4]", "value": 100, "unit": "%"}
    ]},
    {"smiles": "c1cnc(-c2cccc(-c3cnc(-c4cn[nH]c4)s3)n2)nc1", "note": "[Example 9, 2-{6-[2-(1H-Pyrazol-4-yl)-1,3-thiazol-5-yl]pyridin-2-yl}pyrimidine]", "values": [
      {"measurement": "chromatographic logP", "setting": "[1]", "value": 1.35},
      {"measurement": "pest or weed control at 500 g/ha", "setting": "[2]; in Brassica rapa", "value": 90, "unit": "%"}
    ]},
    {"smiles": "c1cnc(-c2cccc(-c3cnc(-c4ccnnc4)s3)n2)nc1", "note": "[Example 3, 4-{5-[6-(Pyrimidin-2-yl)pyridin-2-yl]-1,3-thiazol-2-yl}pyridazine]", "values": [
      {"measurement": "chromatographic logP", "setting": "[1]; [3]", "value": 1.37},
      {"measurement": "chromatographic logP", "setting": "[1]; neutral, logP (neutral), HPLC-MS", "value": 1.4},
      {"measurement": "pest or weed control at 500 g/ha", "setting": "[2]; [4]", "value": 90, "unit": "%"}
    ]},
    {"smiles": "FC(F)(F)c1cccc(-c2cnc(-c3cnsc3)s2)n1", "note": "[Example 11]", "values": [
      {"measurement": "chromatographic logP", "setting": "[1]; [3]", "value": 3.13},
      {"measurement": "pest or weed control at 500 g/ha", "setting": "[2]; [4]", "value": 90, "unit": "%"}
    ]}
  ]
}
